Laboratory results as given in patent publication US20140243403A1, “TREATING COLORECTAL, PANCREATIC, AND LUNG CANCER” (The General Hospital Corporation, priority 2011, published 2014).

Assays:
[1] = test system: HCT8 and SW837 (KRAS-independent) xenografted tumors; experiment: Subcutaneous xenografted tumors, KRAS-independent; type: in vivo, NOD/SCID mice; conditions: 15 mg/kg daily intraperitoneal
Protocol: (C) TAK1 inhibition in mice with xenografted human tumors derived from the HCT8/SW837 (KRAS-independent) and SK-CO-1/SW620 (KRAS-dependent) cell lines. Cells expressing firefly luciferase were injected subcutaneously into the flanks of […]. Tumors are shown as imaged by IVIS detection of luminescence counts (in photons/sec) following 14 days of tumor growth followed by 6 days of treatment with either 15 mg/kg 5z-7-oxozeaenol or vehicle ([…] in arachis oil), IP delivery q.d. Quantitation of tumor volume (mm^3) is plotted on the right. Tumor volume data are represented as the mean of 4 tumors in 2 mice for each group+/−SEM.
To validate the efficacy of 5Z-7-oxozeaenol in vivo, subcutaneous xenografted tumors were generated in NOD/SCID mice using four representative KRAS mutant cell lines: HCT8 and SW837 (KRAS-independent), and SK-CO-1 and SW620 (KRAS-dependent). Human colorectal cancer tumor cells were trypsinized and resuspended as single cell suspensions at 3×10^7 cells per ml in PBS. 100 μL (3×10^6 cells total) of this suspension were injected into opposite left and right flanks of NOD/SCID mice. All mice were housed in a pathogen-free environment. Tumor size was monitored daily and once tumor volume had reached approximately 200 mm^3, treatment with 5Z-7-oxozeaenol was initiated (7 to 14 days post-implantation). Mice were injected daily with 15 mg/kg 5Z-7-oxozeaenol. […]

[2] = test system: HT29 cells expressing BMPR1A-CA (Q233D); experiment: Sensitivity of HT29 cells expressing BMPR1A-CA; type: cell-based, human
Protocol: (E) Introduction of a V5-tagged constitutively activated (CA) mutant of the BMP receptor, BMPR1A (Q233D) or control vector in HT29 cells and effects on 5Z-7-oxozeaenol sensitivity in terms of IC50 values.
To determine whether TAK1-independent cells could be driven toward TAK1 dependency by enhanced KRAS/Wnt signaling, a series of reconstitution experiments was performed. HT29, SW620 or SKCO1 cells were infected with recombinant lentiviruses encoding either BMPR1A-CA and CTNNB1-CA or vector control (containing the ccDB gene). For BMPR1A-CA stable expression, cells were selected in 5 μg/mlBlasticidin for 7 days and pooled clones were established. Stable expression was verified using the V5 epitope tag on the BMPR1A transgene product. For CTNNB1-CA, the pWPI recombinant lentiviruses encode GFP driven by IRES. Thus, stable cell clones were obtaining by FACS live cell sorting to obtain the top 10% of GFP expressing cells. The SW620-CTNNB1-CA stable cell clones were passaged 1:5 every 2 days and assayed for KRAS dependency after the fifth passage.
To further define the role of BMP signaling in TAK1 dependency, a constitutively-activated (CA) variant (Q233D) of BMPR1A (Zou et al., 1997) was ectopically expressed in HT29 cells. […] This was accompanied by dose-dependent decreases in Axin 2 and phosphorylated Smad2 levels. […]

**Q.** Which results are given for COc1cc(O)c2c(c1)/C=C/C[C@H](O)[C@H](O)C(=O)/C=C\C[C@H](C)OC2=O [5Z-7-oxozeaenol]?
**A.** tumor response (imaging, tumor volume) [1]: no significant response; IC50 [2]: 1100 nM
